doi:10.1101/2020.09.06.284752v1 (biorxiv, 2020)

How the values were obtained:
recombinant human PFKM = target: T1, recombinant human PFKM (Homo sapiens, UniProt P08237); assay: PFKM enzymatic activity inhibition; assay type: biochemical
T1 sequence (P08237 2-780): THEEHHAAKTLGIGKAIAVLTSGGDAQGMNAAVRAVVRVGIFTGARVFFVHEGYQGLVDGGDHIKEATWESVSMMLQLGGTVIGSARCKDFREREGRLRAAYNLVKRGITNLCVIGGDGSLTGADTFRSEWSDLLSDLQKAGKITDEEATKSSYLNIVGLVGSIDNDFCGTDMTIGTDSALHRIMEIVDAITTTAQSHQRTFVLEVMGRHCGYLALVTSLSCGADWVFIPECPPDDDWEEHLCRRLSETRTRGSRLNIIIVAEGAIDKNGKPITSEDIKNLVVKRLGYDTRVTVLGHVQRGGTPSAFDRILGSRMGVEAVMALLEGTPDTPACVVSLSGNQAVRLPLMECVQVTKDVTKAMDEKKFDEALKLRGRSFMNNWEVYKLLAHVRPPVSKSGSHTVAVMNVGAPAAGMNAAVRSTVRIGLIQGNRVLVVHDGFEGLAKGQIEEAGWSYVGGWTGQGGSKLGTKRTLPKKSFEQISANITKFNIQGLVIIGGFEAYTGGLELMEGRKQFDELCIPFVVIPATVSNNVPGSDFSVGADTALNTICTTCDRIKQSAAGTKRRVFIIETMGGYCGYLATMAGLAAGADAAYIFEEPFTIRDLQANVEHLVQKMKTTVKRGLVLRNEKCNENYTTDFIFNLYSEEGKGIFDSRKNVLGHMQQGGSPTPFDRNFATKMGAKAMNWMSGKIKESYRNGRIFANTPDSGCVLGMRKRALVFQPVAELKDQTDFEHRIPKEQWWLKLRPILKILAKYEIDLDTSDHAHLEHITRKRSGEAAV

recombinant PFKL = target: T2, recombinant PFKL (Homo sapiens, UniProt P17858); assay: PFKL enzymatic activity inhibition; assay type: biochemical
T2 sequence (P17858 2-780): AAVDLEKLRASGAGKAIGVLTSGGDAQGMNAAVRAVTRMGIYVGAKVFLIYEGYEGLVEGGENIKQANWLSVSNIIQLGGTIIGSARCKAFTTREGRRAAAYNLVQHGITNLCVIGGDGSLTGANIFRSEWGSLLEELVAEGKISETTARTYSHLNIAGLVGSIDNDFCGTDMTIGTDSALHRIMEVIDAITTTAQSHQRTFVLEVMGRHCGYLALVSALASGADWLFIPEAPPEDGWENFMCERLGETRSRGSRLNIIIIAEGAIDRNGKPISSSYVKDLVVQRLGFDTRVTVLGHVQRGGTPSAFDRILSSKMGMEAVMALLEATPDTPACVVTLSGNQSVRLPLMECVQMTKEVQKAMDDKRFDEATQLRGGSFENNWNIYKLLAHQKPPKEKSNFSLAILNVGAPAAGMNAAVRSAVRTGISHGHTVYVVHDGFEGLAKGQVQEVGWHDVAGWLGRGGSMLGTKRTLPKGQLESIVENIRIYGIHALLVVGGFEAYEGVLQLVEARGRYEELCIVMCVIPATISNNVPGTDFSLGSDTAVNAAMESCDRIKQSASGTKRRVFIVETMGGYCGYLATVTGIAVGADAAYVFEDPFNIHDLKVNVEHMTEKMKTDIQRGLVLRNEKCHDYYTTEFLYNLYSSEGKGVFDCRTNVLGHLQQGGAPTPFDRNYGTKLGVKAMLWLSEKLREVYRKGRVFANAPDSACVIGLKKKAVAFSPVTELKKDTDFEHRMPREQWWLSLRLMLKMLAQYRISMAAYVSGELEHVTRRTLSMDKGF

SMILES	IC50 (recombinant human PFKM) [nM]	IC50 (recombinant PFKL) [nM]
C#CCNC(=O)[C@]1(C)CC[C@]2(C)CC[C@]3(C)C4=CC=C5C(=CC(=O)C(O)=C5C)[C@]4(C)CC[C@@]3(C)[C@@H]2C1 [1-85]	507	–
O=C(c1cccs1)c1no[n+]([O-])c1C(=O)c1cccs1 [3-79]	292 ± 20.8	–
CC1=C(O)C(=O)C=C2C1=CC=C1[C@@]2(C)CC[C@@]2(C)[C@@H]3C[C@](C)(C(=O)O)CC[C@]3(C)CC[C@]12C [celastrol]	349	916 ± 35.7
